Test [1] in a line: Inhibition of Saccharomyces cerevisiae alpha-glucosidase using 4-nitrophenyl alpha-D-glucopyranoside as substrate preincubated for 120 mins.
The test system of test [2] is Saccharomyces cerevisiae. The test is described as follows: Irreversible inhibition of Saccharomyces cerevisiae alpha-glucosidase using 4-nitrophenyl alpha-D-glucopyranoside as substrate at 300 uM after 30 mins.
Test [3] deals with Saccharomyces cerevisiae. The test is described as follows: Inhibition of Saccharomyces cerevisiae alpha-glucosidase using 4-nitrophenyl alpha-D-glucopyranoside as substrate.
Test [4] deals with Saccharomyces cerevisiae. The test is described as follows: Time dependent inhibition of Saccharomyces cerevisiae alpha-glucosidase using 4-nitrophenyl alpha-D-glucopyranoside as substrate.

Molecules are shown by their SMILES. Activity calls are given as the source filed them. The calls are words filed in the database; no cut-off is given here.

`N#Cc1c(NC(=O)CC2SC(N)=NC2=O)sc2c1CCCCCC2` (racemic) [listing 1 of 2 here]: the IC50 – broadly, the concentration that gives 50% inhibition – in test [1] amounted to 2.47 µM. Same read-out and setting: with `CC(C)(C)C1CCc2c(sc(NC(=O)CC3SC(N)=NC3=O)c2C#N)C1` (racemic) [listing 1 of 2 here] the figure was 27.1 µM. Regarding `CC(C)(C)C1CCc2c(sc(NC(=O)CC3SC(N)=NC3=O)c2C#N)C1` (racemic) [listing 2 of 2 here], the inhibition entry in the test on Saccharomyces cerevisiae [2] and with Saccharomyces cerevisiae [3] was “Active” in each case. Besides, in the test with Saccharomyces cerevisiae [4], the TDI result is “Active”. For the compound `N#Cc1c(NC(=O)CC2SC(N)=NC2=O)sc2c1CCCCCC2` (racemic) [listing 2 of 2 here], the inhibition result in the test with Saccharomyces cerevisiae [2] and with Saccharomyces cerevisiae [3] was “Active” each time. The TDI entry in the test on Saccharomyces cerevisiae [4] is “Active”. As to `CC(C)(C)C1CCc2c(sc(NC(=O)CC3SC(N)=NC3=O)c2C#N)C1` (single isomer, unassigned; enantiomer 1), in the test on Saccharomyces cerevisiae [3], the inhibition entry was “inactive”.

`N#Cc1c(NC(=O)CC2SC(N)=NC2=O)sc2c1CCCCCC2` (single isomer, unassigned; enantiomer 1): the inhibition result with Saccharomyces cerevisiae [3] is “inactive”.

For the compound `CC(C)(C)C1CCc2c(sc(NC(=O)CC3SC(N)=NC3=O)c2C#N)C1` (single isomer, unassigned; enantiomer 2), the inhibition entry in the test on Saccharomyces cerevisiae [3] is “inactive”. Same read-out and setting: with `N#Cc1c(NC(=O)CC2SC(N)=NC2=O)sc2c1CCCCCC2` (single isomer, unassigned; enantiomer 2) the entry was “inactive”.

(Values after ChEMBL document CHEMBL1932982, “Virtual ligand screening of α-glucosidase: Identification of a novel potent noncarbohydrate mimetic inhibitor” (Bioorg Med Chem Lett, 2012).)
